In PubChem BioAssay (NCI):
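Here, GI50 denotes the concentration required for 50% inhibition of growth. TGI marks complete inhibition of growth.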

How the values were obtained:
Experiment in all cases: growth of human tumour cells (NCI), 384-well format
NCI-H23 lung = test system: NCI-H23 lung
HCT-15 colon = test system: HCT-15 colon
786-0 renal = test system: 786-0 renal
CCRF-CEM leukemia = test system: CCRF-CEM leukemia
OVCAR-4 ovarian = test system: OVCAR-4 ovarian
CAKI-1 renal = test system: CAKI-1 renal
UACC-62 melanoma = test system: UACC-62 melanoma
OVCAR-8 ovarian = test system: OVCAR-8 ovarian
HT29 colon = test system: HT29 colon
KM12 colon = test system: KM12 colon
A549 NSCLC = test system: A549 NSCLC
MDA-MB-468 breast = test system: MDA-MB-468 breast
DU-145 prostate = test system: DU-145 prostate
SF-268 CNS = test system: SF-268 CNS
HS 578T breast = test system: HS 578T breast
PC-3 prostate = test system: PC-3 prostate
SK-MEL-5 melanoma = test system: SK-MEL-5 melanoma
NCI-H460 NSCLC = test system: NCI-H460 NSCLC
RPMI-8226 leukemia = test system: RPMI-8226 leukemia
A498 renal = test system: A498 renal
HOP-62 NSCLC = test system: HOP-62 NSCLC
TK-10 renal = test system: TK-10 renal
SNB-19 CNS = test system: SNB-19 CNS
LOX IMVI melanoma = test system: LOX IMVI melanoma
NCI-H522 lung = test system: NCI-H522 lung
NCI-H226 lung = test system: NCI-H226 lung
MOLT-4 leukemia = test system: MOLT-4 leukemia
RXF 393 renal = test system: RXF 393 renal
BT-549 breast = test system: BT-549 breast
SW-620 colon = test system: SW-620 colon
U251 glioblastoma = test system: U251 glioblastoma
T-47D breast = test system: T-47D breast
ACHN renal = test system: ACHN renal
OVCAR-5 ovarian = test system: OVCAR-5 ovarian
UACC-257 melanoma = test system: UACC-257 melanoma
HOP-92 NSCLC = test system: HOP-92 NSCLC
MCF7 breast = test system: MCF7 breast
SF-295 CNS = test system: SF-295 CNS
NCI/ADR-RES ovarian = test system: NCI/ADR-RES ovarian
UO-31 renal = test system: UO-31 renal
K-562 leukemia = test system: K-562 leukemia
OVCAR-3 ovarian = test system: OVCAR-3 ovarian
NCI-H322M lung = test system: NCI-H322M lung
M14 melanoma = test system: M14 melanoma
SNB-75 CNS = test system: SNB-75 CNS
SK-MEL-28 melanoma = test system: SK-MEL-28 melanoma
SK-OV-3 ovarian = test system: SK-OV-3 ovarian
COLO 205 colon = test system: COLO 205 colon
MDA-MB-231 breast = test system: MDA-MB-231 breast
EKVX NSCLC = test system: EKVX NSCLC
MALME-3M melanoma = test system: MALME-3M melanoma
HCT-116 colon = test system: HCT-116 colon
SF-539 CNS = test system: SF-539 CNS
MDA-MB-435 melanoma = test system: MDA-MB-435 melanoma
IGROV1 ovarian = test system: IGROV1 ovarian
HCC-2998 colon = test system: HCC-2998 colon
SN12C renal = test system: SN12C renal

Cn1c(=O)c(F)c(Nc2ccc(I)cc2F)c2c(=O)n(C[C@@H](O)CO)cnc21
GI50 (NCI-H23 lung): < 0.01 µM | TGI (NCI-H23 lung): 0.0296 µM | GI50 (HCT-15 colon): 0.466 µM | TGI (HCT-15 colon): 19.6 µM | GI50 ([…]-0 renal): 1.62 µM | TGI (786-0 renal): 17.9 µM | GI50 (CCRF-CEM leukemia): 10.6 µM | TGI (CCRF-CEM leukemia): 22.8 µM | GI50 (OVCAR-4 ovarian): 15.6 µM | TGI (OVCAR-4 ovarian): 55.8 µM | GI50 (CAKI-1 renal): 0.0133 µM | TGI (CAKI-1 renal): 19.2 µM | GI50 (UACC-62 melanoma): < 0.01 µM | TGI (UACC-62 melanoma): < 0.01 µM | GI50 (OVCAR-8 ovarian): 3.68 µM | TGI (OVCAR-8 ovarian): 18.6 µM | GI50 (HT29 colon): < 0.01 µM | TGI (HT29 colon): 11.6 µM | GI50 (KM12 colon): < 0.01 µM | TGI (KM12 colon): 13.6 µM | GI50 (A549 NSCLC): < 0.01 µM | TGI (A549 NSCLC): 9.91 µM | GI50 (MDA-MB-468 breast): 0.387 µM | TGI (MDA-MB-468 breast): 1.62 µM | GI50 (DU-145 prostate): 1.99 µM | TGI (DU-145 prostate): 36.7 µM | GI50 (SF-268 CNS): < 0.01 µM | TGI (SF-268 CNS): 7.63 µM | GI50 (HS 578T breast): 0.184 µM | TGI (HS 578T breast): 11 µM | GI50 (PC-3 prostate): 18.5 µM | TGI (PC-3 prostate): 53.2 µM | GI50 (SK-MEL-5 melanoma): < 0.01 µM | TGI (SK-MEL-5 melanoma): 10.7 µM | GI50 (NCI-H460 NSCLC): < 0.01 µM | TGI (NCI-H460 NSCLC): 30.6 µM | GI50 (RPMI-8226 leukemia): 11.6 µM | TGI (RPMI-8226 leukemia): 24.8 µM | GI50 (A498 renal): 0.268 µM | TGI (A498 renal): 12.6 µM | GI50 (HOP-62 NSCLC): < 0.01 µM | TGI (HOP-62 NSCLC): 25.2 µM | GI50 (TK-10 renal): 1.14 µM | TGI (TK-10 renal): 16.9 µM | GI50 (SNB-19 CNS): 0.783 µM | TGI (SNB-19 CNS): 34.5 µM | GI50 (LOX IMVI melanoma): < 0.01 µM | TGI (LOX IMVI melanoma): 0.137 µM | GI50 (NCI-H522 lung): 0.929 µM | TGI (NCI-H522 lung): 22.7 µM | GI50 (NCI-H226 lung): < 0.01 µM | TGI (NCI-H226 lung): 5.39 µM | GI50 (MOLT-4 leukemia): 4.01 µM | TGI (MOLT-4 leukemia): 16.3 µM | GI50 (RXF 393 renal): 0.191 µM | TGI (RXF 393 renal): 10.4 µM | GI50 (BT-549 breast): 2.39 µM | TGI (BT-549 breast): 23.5 µM | GI50 (SW-620 colon): < 0.01 µM | TGI (SW-620 colon): 11.5 µM | GI50 (U251 glioblastoma): 0.0603 µM | TGI (U251 glioblastoma): 9.75 µM | GI50 (T-47D breast): 1.53 µM | TGI (T-47D breast): 22.6 µM | GI50 (ACHN renal): 1.09 µM | TGI (ACHN renal): 26.9 µM | GI50 (OVCAR-5 ovarian): < 0.01 µM | TGI (OVCAR-5 ovarian): 16.9 µM | GI50 (UACC-257 melanoma): < 0.01 µM | TGI (UACC-257 melanoma): < 0.01 µM | GI50 (HOP-92 NSCLC): < 0.01 µM | TGI (HOP-92 NSCLC): 0.179 µM | GI50 (MCF7 breast): 12.4 µM | TGI (MCF7 breast): 29 µM | GI50 (SF-295 CNS): 11.5 µM | TGI (SF-295 CNS): 25.4 µM | GI50 (NCI/ADR-RES ovarian): 12.7 µM | TGI (NCI/ADR-RES ovarian): 44.6 µM | GI50 (UO-31 renal): 0.181 µM | TGI (UO-31 renal): 1.77 µM | GI50 (K-562 leukemia): 0.011 µM | TGI (K-562 leukemia): 15.5 µM | GI50 (OVCAR-3 ovarian): 4.32 µM | TGI (OVCAR-3 ovarian): 19.2 µM | GI50 (NCI-H322M lung): 0.0185 µM | TGI (NCI-H322M lung): 16.6 µM | GI50 (M14 melanoma): < 0.01 µM | TGI (M14 melanoma): < 0.01 µM | GI50 (SNB-75 CNS): 0.32 µM | TGI (SNB-75 CNS): 17.5 µM | GI50 (SK-MEL-28 melanoma): < 0.01 µM | TGI (SK-MEL-28 melanoma): < 0.01 µM | GI50 (SK-OV-3 ovarian): 3.34 µM | TGI (SK-OV-3 ovarian): 21.5 µM | GI50 (COLO 205 colon): < 0.01 µM | TGI (COLO 205 colon): < 0.01 µM | GI50 (MDA-MB-231 breast): < 0.01 µM | TGI (MDA-MB-231 breast): 1.11 µM | GI50 (EKVX NSCLC): 2.08 µM | TGI (EKVX NSCLC): 25.5 µM | GI50 (MALME-3M melanoma): < 0.01 µM | TGI (MALME-3M melanoma): < 0.01 µM | GI50 (HCT-116 colon): < 0.01 µM | TGI (HCT-116 colon): 0.164 µM | GI50 (SF-539 CNS): 0.215 µM | TGI (SF-539 CNS): 10.6 µM | GI50 (MDA-MB-435 melanoma): < 0.01 µM | TGI (MDA-MB-435 melanoma): 19.9 µM | GI50 (IGROV1 ovarian): < 0.01 µM | TGI (IGROV1 ovarian): 1.11 µM | GI50 (HCC-2998 colon): < 0.01 µM | TGI (HCC-2998 colon): 0.0128 µM | GI50 (SN12C renal): < 0.01 µM | TGI (SN12C renal): 17.2 µM
